25 molecules from patent US11117900B2 (Vertex Pharmaceuticals Incorporated, priority 2012, dated 2021) can be followed below.

The test deals with HCT116 colorectal cancer cells. The experiment in a line: Cisplatin sensitization assay (96 h MTS cell viability).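 Further: compound concentration needed to lower the IC50 of Cisplatin alone by a set fold.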 The class given is cell-based. As to conditions: Cisplatin sensitization value. In short, it runs like this:
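The MTS viability read, after 1 h with reagent, followed 96 h of co-treatment at 37° C. in 5% CO2. Both compound and cisplatin were titrated 2-fold from a 10 μM top final concentration in a complete concentration matrix on HCT116 cells. Scores +++/++/+ reflect cisplatin sensitization value ranges.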
Consider `Nc1nn2cc(F)cnc2c1C(=O)Nc1cncc(F)c1N1CCN(S(=O)(=O)C2CC2)CC1` [I-N-159, 2-amino-N-(4-(4-(cyclopropylsulfonyl)piperazin-1-yl)-5-fluoropyridin-3-yl)-6-fluoropyrazolo[1,5-a]pyrimidine-3-carboxamide], for which the “Cisplatin Sensitization Assay” value is listed as “+++ (Compounds with a Cisplatin sensitization value of <0.02 μM are marked with “+++.”)”.

Take `Nc1nn2cc(Cl)cnc2c1C(=O)Nc1cncc(F)c1N1CCC(C(=O)N2CCN3CCC2CC3)CC1` [I-G-87, N-(4-(4-(1,4-diazabicyclo[3.2.2]nonane-4-carbonyl)piperidin-1-yl)-5-fluoropyridin-3-yl)-2-amino-6-chloropyrazolo[1,5-a]pyrimidine-3-carboxamide]: the “Cisplatin Sensitization Assay” value is recorded as “+++ (Compounds with a Cisplatin sensitization value of <0.02 μM are marked with “+++.”)”.

For the molecule `CC(C)N1CCN2CCN(c3ccncc3NC(=O)c3c(N)nn4cc(F)cnc34)CC2C1=O` (stereo not shown) [I-N-245, 2-amino-6-fluoro-N-(4-(8-isopropyl-9-oxohexahydro-1H-pyrazino[1,2-a]pyrazin-2(6H)-yl)pyridin-3-yl)pyrazolo[1,5-a]pyrimidine-3-carboxamide], the “Cisplatin Sensitization Assay” value is given as “++ (Compounds with a Cisplatin sensitization value >0.02 μM but <0.2 μM are marked with “++.”)”.

As for `Nc1nn2cc(F)cnc2c1C(=O)Nc1cnccc1N1CCC(S(=O)(=O)N2CCN3CCC2CC3)CC1` [I-N-196, N-(4-(4-(1,4-diazabicyclo[3.2.2]nonan-4-ylsulfonyl)piperidin-1-yl)pyridin-3-yl)-2-amino-6-fluoropyrazolo[1,5-a]pyrimidine-3-carboxamide], the “Cisplatin Sensitization Assay” value was “+++ (Compounds with a Cisplatin sensitization value of <0.02 μM are marked with “+++.”)”.

Consider `Cc1nncn1-c1ccncc1NC(=O)c1c(N)nn2cc(F)cnc12` [I-N-263, 2-amino-6-fluoro-N-(4-(3-methyl-4H-1,2,4-triazol-4-yl)pyridin-3-yl)pyrazolo[1,5-a]pyrimidine-3-carboxamide], for which the “Cisplatin Sensitization Assay” value is on record as “+ (Compounds with a Cisplatin sensitization value >0.2 μM but <5 μM are marked with “+.”)”.

As for `Nc1nn2cc(F)cnc2c1C(=O)Nc1cncc(F)c1N1CCN(C(=O)CN2CCC2)CC1` [I-N-160, 2-amino-N-(4-(4-(2-(azetidin-1-yl)acetyl)piperazin-1-yl)-5-fluoropyridin-3-yl)-6-fluoropyrazolo[1,5-a]pyrimidine-3-carboxamide], the “Cisplatin Sensitization Assay” value is “+++ (Compounds with a Cisplatin sensitization value of <0.02 μM are marked with “+++.”)”.

On to `Nc1nn2cc(F)cnc2c1C(=O)Nc1cnccc1N1CCC(C(=O)N2CCC2)CC1` [I-G-77, 2-amino-N-(4-(4-(azetidine-1-carbonyl)piperidin-1-yl)pyridin-3-yl)-6-fluoropyrazolo[1,5-a]pyrimidine-3-carboxamide], for which the “Cisplatin Sensitization Assay” value is reported as “+++ (Compounds with a Cisplatin sensitization value of <0.02 μM are marked with “+++.”)”.

For `Nc1nn2cc(F)cnc2c1C(=O)Nc1cnccc1-c1ccc(C(=O)N2CCN(C3COC3)CC2)nc1` [I-C-52, 2-amino-6-fluoro-N-(6-(4-(oxetan-3-yl)piperazine-1-carbonyl)-[3,4′-bipyridin]-3′-yl)pyrazolo[1,5-a]pyrimidine-3-carboxamide], the “Cisplatin Sensitization Assay” value is reported as “++ (Compounds with a Cisplatin sensitization value >0.02 μM but <0.2 μM are marked with “++.”)”.

On to `N#CCc1cnc2c(C(=O)Nc3cnccc3N3CCC(O)CC3)c(N)nn2c1` [I-N-83, 2-amino-6-(cyanomethyl)-N-(4-(4-hydroxypiperidin-1-yl)pyridin-3-yl)pyrazolo[1,5-a]pyrimidine-3-carboxamide], for which the “Cisplatin Sensitization Assay” value is given as “++ (Compounds with a Cisplatin sensitization value >0.02 μM but <0.2 μM are marked with “++.”)”.

For `Nc1nn2cc(F)cnc2c1C(=O)Nc1cncc(F)c1N1CCC(CN2CCCC2=O)CC1` [I-N-213, 2-amino-6-fluoro-N-(5-fluoro-4-(4-((2-oxopyrrolidin-1-yl)methyl)piperidin-1-yl)pyridin-3-yl)pyrazolo[1,5-a]pyrimidine-3-carboxamide], the “Cisplatin Sensitization Assay” value was “+++ (Compounds with a Cisplatin sensitization value of <0.02 μM are marked with “+++.”)”.

Consider `CC1(O)CN(C(=O)C2CCN(c3c(F)cncc3NC(=O)c3c(N)nn4cc(F)cnc34)CC2)C1` [I-G-63, 2-amino-6-fluoro-N-(5-fluoro-4-(4-(3-hydroxy-3-methylazetidine-1-carbonyl)piperidin-1-yl)pyridin-3-yl)pyrazolo[1,5-a]pyrimidine-3-carboxamide], for which the “Cisplatin Sensitization Assay” value is on record as “+++ (Compounds with a Cisplatin sensitization value of <0.02 μM are marked with “+++.”)”.

As for `CCn1cncc1-c1ccncc1NC(=O)c1c(N)nn2cc(F)cnc12` [I-C-80, 2-amino-N-(4-(1-ethyl-1H-imidazol-5-yl)pyridin-3-yl)-6-fluoropyrazolo[1,5-a]pyrimidine-3-carboxamide], the “Cisplatin Sensitization Assay” value was “+++ (Compounds with a Cisplatin sensitization value of <0.02 μM are marked with “+++.”)”.

Turning to `CN1CCC(Oc2ccncc2NC(=O)c2c(N)nn3cc(F)cnc23)CC1` [I-O-12, 2-amino-6-fluoro-N-(4-((1-methylpiperidin-4-yl)oxy)pyridin-3-yl)pyrazolo[1,5-a]pyrimidine-3-carboxamide], the “Cisplatin Sensitization Assay” value is listed as “+++ (Compounds with a Cisplatin sensitization value of <0.02 μM are marked with “+++.”)”.

In the case of `Nc1nn2cc(F)cnc2c1C(=O)Nc1cncc(F)c1N1CCC(C(=O)N2CCC(N3CCCCC3)C2)CC1` (stereo not shown) [I-G-64, 2-amino-6-fluoro-N-(5-fluoro-4-(4-(3-(piperidin-1-yl)pyrrolidine-1-carbonyl)piperidin-1-yl)pyridin-3-yl)pyrazolo[1,5-a]pyrimidine-3-carboxamide], the “Cisplatin Sensitization Assay” value was “+++ (Compounds with a Cisplatin sensitization value of <0.02 μM are marked with “+++.”)”.

Consider `Nc1nn2cc(Cl)cnc2c1C(=O)Nc1cnccc1N1CC[S+]([O-])CC1` [I-N-68, 2-amino-6-chloro-N-(4-(1-oxidothiomorpholino)pyridin-3-yl)pyrazolo[1,5-a]pyrimidine-3-carboxamide], for which the “Cisplatin Sensitization Assay” value is listed as “+++ (Compounds with a Cisplatin sensitization value of <0.02 μM are marked with “+++.”)”.

For `CC1CN(C)CCN1c1ccncc1NC(=O)c1c(N)nn2cc(Cl)cnc12` (stereo not shown) [I-N-72, 2-amino-6-chloro-N-(4-(2,4-dimethylpiperazin-1-yl)pyridin-3-yl)pyrazolo[1,5-a]pyrimidine-3-carboxamide], the “Cisplatin Sensitization Assay” value is “+++ (Compounds with a Cisplatin sensitization value of <0.02 μM are marked with “+++.”)”.

For the molecule `Nc1nn2cc(F)cnc2c1C(=O)Nc1cnccc1-c1ccc(C(=O)N2CCN(C3COC3)CC2)cc1F` [I-C-51, 2-amino-6-fluoro-N-(4-(2-fluoro-4-(4-(oxetan-3-yl)piperazine-1-carbonyl)phenyl)pyridin-3-yl)pyrazolo[1,5-a]pyrimidine-3-carboxamide], the “Cisplatin Sensitization Assay” value was “++ (Compounds with a Cisplatin sensitization value >0.02 μM but <0.2 μM are marked with “++.”)”.

With `CN1CCN(CC2CCN(c3c(F)cncc3NC(=O)c3c(N)nn4cc(F)cnc34)CC2)CC1=O` [I-N-171, 2-amino-6-fluoro-N-(5-fluoro-4-(4-((4-methyl-3-oxopiperazin-1-yl)methyl)piperidin-1-yl)pyridin-3-yl)pyrazolo[1,5-a]pyrimidine-3-carboxamide], the “Cisplatin Sensitization Assay” value is on record as “+++ (Compounds with a Cisplatin sensitization value of <0.02 μM are marked with “+++.”)”.

For `Nc1nn2cc(F)cnc2c1C(=O)Nc1cncc(Cl)c1N1CCN(C2CCOC2)CC1` (stereo not shown) [I-N-124, 2-amino-N-(5-chloro-4-(4-(tetrahydrofuran-3-yl)piperazin-1-yl)pyridin-3-yl)-6-fluoropyrazolo[1,5-a]pyrimidine-3-carboxamide], the “Cisplatin Sensitization Assay” value was “+++ (Compounds with a Cisplatin sensitization value of <0.02 μM are marked with “+++.”)”.

For the molecule `C[C@H]1CN(C(=O)C2CCN(c3c(F)cncc3NC(=O)c3c(N)nn4cc(F)cnc34)CC2)CCN1` [I-G-61, (S)-2-amino-6-fluoro-N-(5-fluoro-4-(4-(3-methylpiperazine-1-carbonyl)piperidin-1-yl)pyridin-3-yl)pyrazolo[1,5-a]pyrimidine-3-carboxamide], the “Cisplatin Sensitization Assay” value was “+++ (Compounds with a Cisplatin sensitization value of <0.02 μM are marked with “+++.”)”.

For the molecule `CNC1CN(C(=O)C2CCN(c3c(F)cncc3NC(=O)c3c(N)nn4cc(F)cnc34)CC2)C1` [I-G-34, 2-amino-6-fluoro-N-(5-fluoro-4-(4-(3-(methylamino)azetidine-1-carbonyl)piperidin-1-yl)pyridin-3-yl)pyrazolo[1,5-a]pyrimidine-3-carboxamide], the “Cisplatin Sensitization Assay” value is “+++ (Compounds with a Cisplatin sensitization value of <0.02 μM are marked with “+++.”)”.

With `N#CCc1cnc2c(C(=O)Nc3cnccc3OCCO)c(N)nn2c1` [I-O-33, 2-amino-6-(cyanomethyl)-N-(4-(2-hydroxyethoxy)pyridin-3-yl)pyrazolo[1,5-a]pyrimidine-3-carboxamide], the “Cisplatin Sensitization Assay” value is “++ (Compounds with a Cisplatin sensitization value >0.02 μM but <0.2 μM are marked with “++.”)”.

Regarding `CN1CCN(c2cc(Cl)ncc2NC(=O)c2c(N)nn3cc(Cl)cnc23)CC1` [I-N-52, 2-amino-6-chloro-N-(6-chloro-4-(4-methylpiperazin-1-yl)pyridin-3-yl)pyrazolo[1,5-a]pyrimidine-3-carboxamide], the “Cisplatin Sensitization Assay” value is “++ (Compounds with a Cisplatin sensitization value >0.02 μM but <0.2 μM are marked with “++.”)”.

Regarding `Nc1nn2cc(Cl)cnc2c1C(=O)Nc1cnccc1N1CCN(C2CCC2)CC1` [I-N-48, 2-amino-6-chloro-N-(4-(4-cyclobutylpiperazin-1-yl)pyridin-3-yl)pyrazolo[1,5-a]pyrimidine-3-carboxamide], the “Cisplatin Sensitization Assay” value is “++ (Compounds with a Cisplatin sensitization value >0.02 μM but <0.2 μM are marked with “++.”)”.

In the case of `Nc1nn2cc(F)cnc2c1C(=O)Nc1cnccc1-c1ccc(C(=O)N2CCN3CCC2CC3)cc1` [I-C-48, N-(4-(4-(1,4-diazabicyclo[3.2.2]nonane-4-carbonyl)phenyl)pyridin-3-yl)-2-amino-6-fluoropyrazolo[1,5-a]pyrimidine-3-carboxamide], the “Cisplatin Sensitization Assay” value is “+++ (Compounds with a Cisplatin sensitization value of <0.02 μM are marked with “+++.”)”.
